This note sets out measurements from patent publication US20060148754A1, “Composition for treating and/or preventing dysfunctions associated with type 2 diabetes mellitus and insulin resistance” (priority 2003, published 2006).

This test in a line: Acetate and glycerol tracer infusion study with ingestion of lactulose or saline in obese, insulin resistant subjects. Type of test: in vivo, human. The protocol:
Eight obese and insulin resistant subjects received a primed constant intravenous infusion of [1-^13C]acetate at the rate of 0.50 μmol·kg^−1·min^−1 and of [1,1,2,3,3-^2H5]glycerol at the rate of 0.11 μmol·kg^−1·min^−1 for 9 hours. After 3 hours of tracer infusion, patients ingested 30 g of pure lactulose, or saline solution. Arterialized blood samples were collected regularly.

Take `OC[C@H]1O[C@@H](O[C@@H]2[C@@H](CO)OC(O)(CO)[C@H]2O)[C@H](O)[C@@H](O)[C@H]1O` (mixture of isomers) [lactulose]: for the setting “after ingestion of 30 g lactulose, then decreased to baseline”, the “plasma acetate concentration, maximum” value is recorded as “≈ 400 μmol/L”. Also, the FFA concentrations result (after ingestion of 30 g lactulose, to 120 min, thereafter increased slowly) is listed as “decreased significantly”. The same compound returned an acetate turnover rate (after ingestion of 30 g pure lactulose, eight obese insulin resistant subjects, saline 10.3±2.2, P<0.0001) of 15.5 ± 2.2 µmol/kg/min. Besides, where the note is “after ingestion of 30 g pure lactulose, saline 3.5±0.3, P≦0.05”, the glycerol turnover came out at 2.8 ± 0.4 µmol/kg/min.
